Experimental data published in ChEMBL document CHEMBL1135755, “SAR by MS: a ligand based technique for drug lead discovery against structured RNA targets” (J Med Chem, 2002).

Legend:
[1] = Dissociation constant was determined; assay type: physicochemical
Nucleic Acid = assay: Inhibitory activity against RNA target using functional assay

Kd [1]: 6.5 µM | IC50 (Nucleic Acid): 14 µM
Compound: NCC[C@@H](NC(=O)c1ccc(-c2cccc(NC(=O)c3ccc4nc(O)c(O)nc4c3)c2)o1)C(=O)N1CCNCC1
